We go through ten substances from the OligoGym collection.

HELM strings list units from the 5' end as sugar, base in round brackets, then linkage (d deoxyribose, r ribose, m 2'-O-methyl, p phosphodiester). Strings are as the collection lists them; they lack the last nucleoside at the 3' end of the tested compound. [moe] = 2'-O-(2-methoxyethyl) (MOE); [sp] = phosphorothioate linkage; [m5C] = 5-methylcytosine

The series addresses APP. The series is described as follows: mouse, dose not given. The following applies: ASO.
As for “RNA1{[moe]([m5C])[sp].[moe](T)p.[moe]([m5C])p.[moe](T)p.[moe]([m5C])[sp].d(A)[sp].d(T)[sp].d(A)[sp].d(G)[sp].d(T)[sp].d([m5C])[sp].d(T)[sp].d(T)[sp].d(A)[sp].d(A)[sp].[moe](T)p.[moe](T)p.[moe]([m5C])[sp].[moe]([m5C])}$$$$ (last 3' nucleoside missing)”, the 3 h FOB score stood at 0.25 score 0-7. With “RNA1{[moe]([m5C])[sp].[moe](A)p.[moe](A)p.[moe](A)p.[moe](G)[sp].d(A)[sp].d(T)[sp].d(T)[sp].d([m5C])[sp].d([m5C])[sp].d(A)[sp].d([m5C])[sp].d(T)[sp].d(T)[sp].d(T)[sp].[moe]([m5C])p.[moe](T)p.[moe]([m5C])[sp].[moe]([m5C])}$$$$ (last 3' nucleoside missing)”, the 3 h FOB score is 7 score 0-7.

On to “RNA1{[moe](A)[sp].[moe](T)p.[moe](G)p.[moe](T)p.[moe](T)[sp].d([m5C])[sp].d(A)[sp].d(T)[sp].d(T)[sp].d([m5C])[sp].d(T)[sp].d([m5C])[sp].d(A)[sp].d(T)[sp].d([m5C])[sp].[moe]([m5C])p.[moe]([m5C])p.[moe]([m5C])[sp].[moe](A)}$$$$ (last 3' nucleoside missing)”, for which the 3 h FOB score came out at 1 score 0-7. For “RNA1{[moe]([m5C])[sp].[moe]([m5C])p.[moe](T)p.[moe](T)p.[moe](T)[sp].d([m5C])[sp].d(A)[sp].d(A)[sp].d(T)[sp].d(A)[sp].d(T)[sp].d(T)[sp].d(G)[sp].d(T)[sp].d(T)[sp].[moe]([m5C])p.[moe](T)p.[moe](T)[sp].[moe]([m5C])}$$$$ (last 3' nucleoside missing)”, the 3 h FOB score amounted to 3.33 score 0-7. As for “RNA1{[moe](T)[sp].[moe](T)p.[moe](T)p.[moe](G)p.[moe]([m5C])[sp].d(A)[sp].d(T)[sp].d(A)[sp].d(T)[sp].d(T)[sp].d([m5C])[sp].d(A)[sp].d(T)[sp].d(A)[sp].d([m5C])[sp].[moe](T)p.[moe](T)p.[moe](G)[sp].[moe](G)}$$$$ (last 3' nucleoside missing)”, the figure is 0 score 0-7; as for “RNA1{[moe](A)[sp].[moe](T)p.[moe](T)p.[moe]([m5C])p.[moe](T)[sp].d(G)[sp].d(G)[sp].d(A)[sp].d([m5C])[sp].d(A)[sp].d(T)[sp].d(T)[sp].d([m5C])[sp].d(A)[sp].d(T)[sp].[moe](G)p.[moe](T)p.[moe](G)[sp].[moe]([m5C])}$$$$ (last 3' nucleoside missing)”, 1 score 0-7; as for “RNA1{[moe](G)[sp].[moe]([m5C])p.[moe](A)p.[moe](T)p.[moe]([m5C])[sp].d(A)[sp].d([m5C])[sp].d(A)[sp].d(A)[sp].d(T)[sp].d(T)[sp].d([m5C])[sp].d(T)[sp].d(T)[sp].d([m5C])[sp].[moe](A)p.[moe](T)p.[moe](T)[sp].[moe](G)}$$$$ (last 3' nucleoside missing)”, 0 score 0-7. As for “RNA1{[moe](T)[sp].[moe](G)p.[moe](A)p.[moe](T)p.[moe](G)[sp].d([m5C])[sp].d(A)[sp].d([m5C])[sp].d(A)[sp].d(T)[sp].d(A)[sp].d(T)[sp].d([m5C])[sp].d([m5C])[sp].d(A)[sp].[moe](G)p.[moe](G)p.[moe]([m5C])[sp].[moe](T)}$$$$ (last 3' nucleoside missing)”, the figure is 0.25 score 0-7; as for “RNA1{[moe]([m5C])[sp].[moe](T)p.[moe]([m5C])p.[moe](T)p.[moe](T)[sp].d(G)[sp].d(T)[sp].d(T)[sp].d(A)[sp].d(A)[sp].d(A)[sp].d(T)[sp].d([m5C])[sp].d(A)[sp].d(T)[sp].[moe](G)p.[moe](G)p.[moe]([m5C])[sp].[moe](A)}$$$$ (last 3' nucleoside missing)”, 0 score 0-7.

“RNA1{[moe](G)[sp].[moe]([m5C])p.[moe](A)p.[moe](A)p.[moe](G)[sp].d(A)[sp].d([m5C])[sp].d(T)[sp].d(T)[sp].d(T)[sp].d(T)[sp].d([m5C])[sp].d(T)[sp].d(T)[sp].d(T)[sp].[moe](G)p.[moe]([m5C])p.[moe](T)[sp].[moe]([m5C])}$$$$ (last 3' nucleoside missing)” showed a 3 h FOB score of 0 score 0-7.
